{
  "source": "patent US20190328016A1",
  "about": "“SALT COMPOSITION INCLUDING SARCOSINE” (NESTEC S.A., priority 2016, published 2019)",
  "system": "trained panellists",
  "assay": "Sensory evaluation of tablets by 11 trained panellists",
  "type": "in vivo",
  "method": "Bars coloured black denote a significant difference in a particular taste/sensory characteristic. Unshaded bars denote that there is no significant difference in the characteristic. A positive number represents an increased sensory response of the co-crystal compared to the physical mixture.\nTablets for sensory evaluation were prepared using a Romaco Kilian Styl'One single-stroke tablet press. […] The tablets were prepared with three compressions of 300 ms and an interval of 200 ms.\nEach of the panellists received a tray with two tablets presented on plastic plates coded with random 3-digit numbers. The tablets had to be crunched with the front teeth and kept in mouth to dissolve slowly (method 1). Alternatively, tablets could be crunched with the front teeth and chewed constantly in the mouth until complete dissolution occurred (method 2).\nAfterwards the panellists were asked to rate the taste of the tablets in respect of the following 12 categories: upfront saltiness (1), overall saltiness (2), sweetness (3), sourness (4), umami (5), friable (6), melting (7), overall persistence (8), saltiness persistence (9), sweetness persistence (10), sourness persistence (11), and tingling (12).",
  "data": [
    {"smiles": "N[C@@H](CO)C(=O)O.N[C@@H](CO)C(=O)O.[Cl-].[Na+]", "note": "[(L-serine)2.sodium chloride co-crystals, (L-serine)2.sodium chloride]", "values": [
      {"measurement": "perceived salty taste versus corresponding physical mix", "setting": "25 mg sodium chloride per tablet, during and after consumption", "result": "significantly more salty"},
      {"measurement": "overall saltiness versus physical mix", "setting": "11 trained panellists, FIG. 2", "result": "superior"},
      {"measurement": "saltiness persistence versus physical mix", "setting": "11 trained panellists, FIG. 2", "result": "superior"},
      {"measurement": "upfront saltiness versus physical mix", "setting": "11 trained panellists, FIG. 2", "result": "superior"}
    ]}
  ]
}
